# Assay results from article PMC12591484 (PLOS One, 2025).
# Legend:
# [1] = molecular target: T1, α1β3γ2S301C GABAA receptors (Homo sapiens, UniProt P14867+P18507+P28472, S340C); assay: Drug protection from pCMBS modification (SCAMP); format: cell-based; details: γ2S301C (γ+); pCMBS 100 µM x 90 s; […] etomidate, 8 µM R-mTFD-MPAB or 10 µM pTFD-di-iPr-BnOH; n = 5
# T1 construct: expressed in transfected cells; host or cells: Xenopus oocytes injected with capped mRNAs mixed 1α:1β:5γ
# T1 sequence (P14867 28-456): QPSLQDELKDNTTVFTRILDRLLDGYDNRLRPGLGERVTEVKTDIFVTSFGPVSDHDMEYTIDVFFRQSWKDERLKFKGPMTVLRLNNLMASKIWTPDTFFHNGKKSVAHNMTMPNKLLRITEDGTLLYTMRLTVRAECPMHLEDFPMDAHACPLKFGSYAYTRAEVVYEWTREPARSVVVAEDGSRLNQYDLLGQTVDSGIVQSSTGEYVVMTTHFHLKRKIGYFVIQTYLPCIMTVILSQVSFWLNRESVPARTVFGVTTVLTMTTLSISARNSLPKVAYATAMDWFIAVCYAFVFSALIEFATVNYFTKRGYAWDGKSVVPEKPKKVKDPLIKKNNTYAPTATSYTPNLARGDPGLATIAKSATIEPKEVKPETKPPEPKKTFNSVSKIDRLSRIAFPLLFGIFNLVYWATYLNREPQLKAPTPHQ
# T1 sequence (P28472 26-473): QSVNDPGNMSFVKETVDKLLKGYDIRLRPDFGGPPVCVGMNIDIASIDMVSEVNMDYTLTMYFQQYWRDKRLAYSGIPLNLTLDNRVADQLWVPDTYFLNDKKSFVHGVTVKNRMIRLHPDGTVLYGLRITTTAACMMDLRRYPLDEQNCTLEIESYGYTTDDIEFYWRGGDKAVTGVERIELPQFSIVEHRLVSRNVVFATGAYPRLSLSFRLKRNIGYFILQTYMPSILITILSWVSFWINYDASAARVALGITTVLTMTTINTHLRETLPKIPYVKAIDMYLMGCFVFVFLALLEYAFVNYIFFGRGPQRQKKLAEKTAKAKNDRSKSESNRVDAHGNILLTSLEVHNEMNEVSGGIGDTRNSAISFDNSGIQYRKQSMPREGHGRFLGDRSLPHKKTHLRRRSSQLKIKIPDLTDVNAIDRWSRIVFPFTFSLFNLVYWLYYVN
# T1 sequence (P18507 40-475 S340C): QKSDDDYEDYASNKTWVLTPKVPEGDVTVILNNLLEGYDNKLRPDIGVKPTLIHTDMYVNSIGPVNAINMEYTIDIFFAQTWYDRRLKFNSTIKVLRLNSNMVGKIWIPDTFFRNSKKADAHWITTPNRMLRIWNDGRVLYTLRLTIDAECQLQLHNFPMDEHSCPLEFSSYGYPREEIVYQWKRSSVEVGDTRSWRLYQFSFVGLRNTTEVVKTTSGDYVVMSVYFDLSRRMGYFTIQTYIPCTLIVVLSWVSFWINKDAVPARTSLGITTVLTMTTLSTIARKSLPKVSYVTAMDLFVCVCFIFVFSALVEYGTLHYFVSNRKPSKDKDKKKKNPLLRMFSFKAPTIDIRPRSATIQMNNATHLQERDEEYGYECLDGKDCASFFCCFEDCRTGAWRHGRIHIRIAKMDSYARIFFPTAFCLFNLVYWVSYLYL
# Description: (§1) Experiments were performed in ND-96 buffer at room temperature (20–22°C). Oocytes were placed in a low-volume (30µl) flow chamber and impaled with borosilicate microelectrodes filled with 3M KCl (resistance 0.5–3 MΩ) and voltage-clamped at −50 mV (model OC-725C; Warner Instruments, Hamden, CT, USA). Superfusate solutions in ND-96 were delivered at 2 ml/min from glass syringe reservoirs via computer-controlled valves (VC-8; Warner Instruments), a micro-manifold (ALA-VM8; ALA Scientific Instruments, Farmingdale, NY, USA), and PTFE tubing. Currents were digitized at 200 Hz on a computer running ClampEx v8.0 software (Molecular Devices, San Jose, CA, USA). Digitized traces were filtered with a 10-Hz low-pass Bessel function, leak corrected and analyzed for peak amplitude off-line using Clampfit v8 software (Molecular Devices).
# (§2) Drug protection from pCMBS modification was assessed under pCMBS exposure conditions that produced approximately half of the maximal modification ratio for each mutant receptor, and a least a value of 3. This approach balanced the magnitude of functional modification signals (smaller with less pCMBS exposure) against the challenge of using a reversibly bound ligand to competitively block an irreversible covalent cysteine-modifying reaction. […] Each oocyte was used in a single SCAMP experiment. […] Etomidate was used as a positive control for anesthetic protection in α1M236C and β3M286C mutants and as a negative control in α1S270C, α1A291C, β3L231C, γ2S301C, γ2I242C, and γ2L246C mutants. R-mTFD-MPAB was used as a positive control in α1S270C, α1A291C, β3L231C, and γ2LS301C mutants and as a negative control in α1M236C and β3M286C mutants. For each cysteine mutant and protective drug combination, five oocytes were studied.
# (§3) Non-linear least squares fits and statistical analyses were performed in Prism 10.4.0. (GraphPad Software, San Diego, CA, USA). […] Protection (steric inhibition of pCMBS modification) was inferred when anesthetics produced significant reductions in modification ratios relative to control (no anesthetic) values. The statistical significance threshold was p < 0.05.
# [2] = system: α1β2N265Cγ2L receptors; details: at the tested concentration; etomidate binds extremely weakly; cited from earlier work
# [3] = molecular target: T2, α1β3γ2L246C GABAA receptors (Homo sapiens, UniProt P14867+P18507+P28472, L285C); assay: Drug protection from pCMBS modification (SCAMP); format: cell-based; parameters: key: +: Mutant-function studies are deemed positive when bulky mutations (mostly tryptophans) at the site significantly reduce positive modulation by anesthetics; -: Negative results are indicated by “–“ symbols; details: results of this study (*); etomidate cell also cites [9]
# T2 construct: expressed in transfected cells; host or cells: Xenopus oocytes injected with capped mRNAs mixed 1α:1β:5γ
# T2 sequence (P18507 40-475 L285C, one chain of several): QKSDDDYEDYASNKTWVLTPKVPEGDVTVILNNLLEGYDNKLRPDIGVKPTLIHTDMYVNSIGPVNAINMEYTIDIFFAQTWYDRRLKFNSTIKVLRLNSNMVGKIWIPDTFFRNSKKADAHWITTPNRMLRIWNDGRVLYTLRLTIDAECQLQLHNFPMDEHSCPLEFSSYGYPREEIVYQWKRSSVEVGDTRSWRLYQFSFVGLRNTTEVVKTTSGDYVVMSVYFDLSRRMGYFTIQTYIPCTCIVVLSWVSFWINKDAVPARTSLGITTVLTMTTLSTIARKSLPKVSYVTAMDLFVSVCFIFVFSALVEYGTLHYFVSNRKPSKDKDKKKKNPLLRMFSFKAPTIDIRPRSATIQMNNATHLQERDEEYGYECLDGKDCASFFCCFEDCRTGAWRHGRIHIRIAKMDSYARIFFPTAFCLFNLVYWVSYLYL
# Description: as §1, §2, §3
# [4] = molecular target: T3, α1β3L231Cγ2L GABAA receptors (Homo sapiens, UniProt P14867+P18507+P28472, L256C); assay: Drug protection from pCMBS modification (SCAMP); format: cell-based; parameters: key: +: Mutant-function studies are deemed positive when bulky mutations (mostly tryptophans) at the site significantly reduce positive modulation by anesthetics; -: Negative results are indicated by “–“ symbols; details: results of this study (*); some cells also cite [9]
# T3 construct: expressed in transfected cells; host or cells: Xenopus oocytes injected with capped mRNA, 1α:1β:5γ
# T3 sequence (P28472 26-473 L256C, one chain of several): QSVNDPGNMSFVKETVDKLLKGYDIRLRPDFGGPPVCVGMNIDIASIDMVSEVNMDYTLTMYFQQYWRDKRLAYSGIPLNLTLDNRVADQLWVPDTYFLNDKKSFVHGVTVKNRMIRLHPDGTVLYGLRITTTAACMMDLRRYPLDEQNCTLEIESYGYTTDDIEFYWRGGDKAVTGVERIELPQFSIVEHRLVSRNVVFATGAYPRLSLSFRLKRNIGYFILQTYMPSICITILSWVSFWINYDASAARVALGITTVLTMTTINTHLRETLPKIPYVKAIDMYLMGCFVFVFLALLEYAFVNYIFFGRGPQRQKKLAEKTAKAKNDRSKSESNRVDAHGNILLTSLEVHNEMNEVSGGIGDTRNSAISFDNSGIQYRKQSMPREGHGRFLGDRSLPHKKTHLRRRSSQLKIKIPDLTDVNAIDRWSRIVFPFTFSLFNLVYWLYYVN
# T3 sequence (P18507 40-475, one chain of several): as the sequence (P18507 40-475 L285C, one chain of several) above, with C246L counted along it
# Description: as §1, §2, §3
SMILES,"protection from pCMBS modification (significant reduction of modification ratio vs control, p < 0.05) [1]",SCAMP protection at β N265C [2],"SCAMP result, γ2– (M1) L246 [3]","SCAMP result, β3– (M1) L231 [4]"
"C=CCC1(c2cccc(C3(C(F)(F)F)N=N3)c2)C(=O)NC(=O)N(C)C1=O (stereo not shown) [R-mTFD-MPAB, R-5-allyl-1-methyl-5-(m-trifluoromethyl-diazirynylphenyl) barbituric acid]",protection was inferred,–,–,–
"CCOC(=O)c1cncn1[C@H](C)c1ccccc1 [etomidate, R-etomidate]",–,fails to protect,"-^[9], *","-^[9], *"
